# Laboratory results as given in PubChem BioAssay AID1897 (NMMLSC, 2009).
# Calls of active or inactive are those of the source. The rule behind the calls is not given here.
# Target: Mitogen-activated protein kinase kinase kinase 2 (Homo sapiens) + Dual specificity mitogen-activated protein kinase kinase 5 (Homo sapiens) (UniProt Q9Y2U5+Q13163)
# Assay: MEKK2 PB1-MEK5 interaction blockers – biochemical, bead multiplex flow cytometry, wildtype, dose response (AID 1897)
# Conditions: MEK5-MEKK2 PB1 binding; for Ki: measured here: Ki from binding competition
# Sequence of Mitogen-activated protein kinase kinase kinase 2 (Homo sapiens) + Dual specificity mitogen-activated protein kinase kinase 5 (Homo sapiens) (Q13163 whole entry, looked up): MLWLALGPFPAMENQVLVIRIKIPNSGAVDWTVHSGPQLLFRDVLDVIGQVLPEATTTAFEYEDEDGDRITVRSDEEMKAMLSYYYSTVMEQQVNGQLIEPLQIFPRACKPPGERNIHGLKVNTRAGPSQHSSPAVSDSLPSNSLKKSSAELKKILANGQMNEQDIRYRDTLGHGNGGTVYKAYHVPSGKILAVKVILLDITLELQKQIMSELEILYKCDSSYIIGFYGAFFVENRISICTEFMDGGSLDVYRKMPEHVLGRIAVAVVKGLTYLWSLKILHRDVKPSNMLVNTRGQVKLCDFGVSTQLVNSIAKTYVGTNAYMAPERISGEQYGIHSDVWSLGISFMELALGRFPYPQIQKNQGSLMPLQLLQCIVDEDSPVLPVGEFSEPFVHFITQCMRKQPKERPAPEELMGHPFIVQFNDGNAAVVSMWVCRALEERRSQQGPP
# Sequence of Mitogen-activated protein kinase kinase kinase 2 (Homo sapiens) + Dual specificity mitogen-activated protein kinase kinase 5 (Homo sapiens) (Q9Y2U5 whole entry, looked up): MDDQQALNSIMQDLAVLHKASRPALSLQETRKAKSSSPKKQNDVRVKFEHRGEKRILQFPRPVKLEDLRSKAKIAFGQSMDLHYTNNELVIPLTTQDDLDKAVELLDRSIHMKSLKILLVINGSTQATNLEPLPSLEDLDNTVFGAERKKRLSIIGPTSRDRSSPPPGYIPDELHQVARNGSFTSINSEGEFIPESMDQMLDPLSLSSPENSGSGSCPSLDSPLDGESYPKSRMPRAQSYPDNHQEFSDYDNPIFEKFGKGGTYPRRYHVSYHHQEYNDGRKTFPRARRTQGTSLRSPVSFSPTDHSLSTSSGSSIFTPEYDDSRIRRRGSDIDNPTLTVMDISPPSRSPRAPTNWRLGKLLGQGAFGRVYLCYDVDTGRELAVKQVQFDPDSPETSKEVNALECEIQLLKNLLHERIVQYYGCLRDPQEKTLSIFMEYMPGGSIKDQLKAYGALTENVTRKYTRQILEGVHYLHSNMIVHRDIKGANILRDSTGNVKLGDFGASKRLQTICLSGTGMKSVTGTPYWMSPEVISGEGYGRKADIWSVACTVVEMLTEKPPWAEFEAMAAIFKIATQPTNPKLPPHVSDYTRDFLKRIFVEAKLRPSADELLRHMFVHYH
Compound,EC50,Ki [nM]
CC(C)N=c1cc2n(-c3ccc(Cl)cc3)c3ccccc3nc-2cc1Nc1ccc(Cl)cc1,> 30 µM (inactive),–
CC[C@@H](C)[C@H](CNC)NC[C@@H](Cc1cccc2ccccc12)NCCc1cccc(C(F)(F)F)c1,2.03 µM,–
N#CC(C#N)=c1ccc2c(c1)N1C(c3ccccc3)=CC(c3ccccc3)C3CCCCC31N=2 (stereo not given),1.95 µM,1750
C#CCOCCOCCOCCNc1nc(N2CCN(C(=O)C(Cc3ccc(O)cc3)n3cc(C(N)CC(C)C)nn3)CC2)nc(N2CCN(C(=O)C(Cc3cc4ccccc4[nH]3)n3cc(C(N)Cc4ccc(O)cc4)nn3)CC2)n1 (stereo not given),6.12 µM,–
C#CCOCCOCCOCCNc1nc(N2CCN(C(=O)[C@H]([C@@H](C)CC)n3cc([C@@H](N)CO)nn3)CC2)nc(N2CCN(C(=O)[C@H](Cc3cc4ccccc4[nH]3)n3cc([C@@H](N)C(C)CC)nn3)CC2)n1 (stereo not given in full),> 30 µM (inactive),–
CCN1CCN(CCNC(=O)c2ccc(/C=C3/Sc4ccccc4N(Cc4cccc(C)c4)C3=O)cc2)CC1,6.61 µM,–
CCOc1cccc2sc(N(CCCN(C)C)C(=O)c3ccc(S(=O)(=O)N4CCc5ccccc5C4)cc3)nc12,13.2 µM,–
CN(c1ccccc1)c1ccc(/C=c2\s/c(=C(/C#N)C(=O)C(C)(C)C)n(Cc3ccco3)c2=O)cc1,0.67 µM,600
CCOC(=O)N1CCN(c2c(N3CCN(c4ccccc4F)CC3)c(=O)c2=O)CC1,> 30 µM (inactive),–
Nc1ccc(Nc2ccccc2N)cc1,23.6 µM,21100
O=C(CCCC(=O)N(CC(=O)NC1CCCC1)C1CCCC1)Nc1ccccn1,> 30 µM (inactive),–
CN1C(=O)/C(=C\c2ccc(-c3ccccc3)o2)SC1=S,3.51 µM,3140
O=C(Nc1ccc(Cl)cn1)c1ccc2c(Cl)c3c(nc2c1)CCC3,> 30 µM (inactive),–
CCc1ccc(Nc2n[n+](-c3ccccc3)c(-c3cc(OC)c(OC)cc3Br)s2)cc1,5.06 µM,–
CN(C)CCNc1ncnc2c1sc1nc(-c3ccccc3)c3c(c12)CCCC3,3.37 µM,–
CCN1CCN(CCNC(=O)c2ccc(/C=C3/Sc4ccccc4N(Cc4cccc(Cl)c4)C3=O)cc2)CC1,3.78 µM,–
CN1CCN(CC(O)COc2ccc(C34CC5CC(CC(C5)C3)C4)cc2)CC1 (stereo not given),> 30 µM (inactive),–
COc1ccc(CNC[C@@H](CCCCN(C)Cc2ccc(OC)cc2)N2C[C@H](c3ccccc3)N(CCc3ccc(Cl)c(Cl)c3)C(=O)C2=O)cc1,1.48 µM,–
CCCCCCOc1ccc(/C(C)=N/NC2=NCCN2)cc1[N+](=O)[O-],9.29 µM,–
NC(N)=N/N=C/c1ccc(OCc2ccc(Cl)cc2Cl)cc1,1.91 µM,–
CCCCCCCCCCOC(=O)Cn1c(COc2ccccc2)[n+](C)c2ccccc21,2.6 µM,–
CCCN1C(=O)/C(=C\C=C2/Sc3ccccc3N2CC)SC1=S,3.03 µM,2710
C#CCOCCOCCOCCNc1nc(N2CCN(C(=O)[C@H]([C@@H](C)CC)n3cc([C@@H](N)Cc4ccc(O)cc4)nn3)CC2)nc(N2CCN(C(=O)[C@H](Cc3cc4ccccc4[nH]3)n3cc([C@@H](N)C(C)CC)nn3)CC2)n1 (stereo not given in full),3.73 µM,–
C#CCOCCOCCOCCNc1nc(N2CCN(C(=O)[C@H](CCCCN)n3cc([C@@H](N)CC(C)C)nn3)CC2)nc(N2CCN(C(=O)[C@H](Cc3cc4ccccc4[nH]3)n3cc([C@@H](N)Cc4ccc(O)cc4)nn3)CC2)n1,> 30 µM (inactive),–
C#CCOCCOCCOCCNc1nc(N2CCN(C(=O)C([C@@H](C)CC)n3cc(C(N)COC(=O)C(F)(F)F)nn3)CC2)nc(N2CCN(C(=O)[C@H](CCCCN)n3cc(C(N)[C@H](C)CC)nn3)CC2)n1 (stereo not given in full),> 30 µM (inactive),–
O=[N+]([O-])c1ccc(/C=C/C2=NN(c3ccccc3)C(c3ccco3)C2)o1 (stereo not given),> 30 µM (inactive),–
Cc1cc2ccccc2n1CCNC(=O)c1ccccc1,3.02 µM,2700

Compound,EC50,Ki [nM]
C#CCOCCOCCOCCNc1nc(N2CCN(C(=O)[C@H](Cc3cc4ccccc4[nH]3)n3cc([C@@H](N)C(C)CC)nn3)CC2)nc(N2CCN(C(=O)[C@H](Cc3cc4ccccc4[nH]3)n3cc([C@@H](N)CC(C)C)nn3)CC2)n1 (stereo not given in full),2.69 µM,–
COC(=O)C1=C(C)N(Cc2ccccc2)C(=NCc2cccc(C(F)(F)F)c2)N[C@H]1c1cccc(F)c1,7.03 µM,–
S=C(Nc1cccc(Cl)c1)N(CCCN1CCCC1)Cc1cccn1Cc1ccc(Cl)cc1,5.75 µM,–
CCCCCCCCCCOC(=O)Cn1c(COc2ccc(OC)cc2)[n+](C)c2ccccc21,> 30 µM (inactive),–
CCN1/C(=C/c2ccc3cc(C)cc(C)c3[n+]2CC)Sc2cc(C)ccc21,1.88 µM,1680
C#CCOCCOCCOCCNc1nc(N2CCN(C(=O)C(Cc3ccc(O)cc3)n3cc(C(N)CC(C)C)nn3)CC2)nc(N2CCN(C(=O)C(Cc3cc4ccccc4[nH]3)n3cc(C(N)C(C)CC)nn3)CC2)n1 (stereo not given),> 30 µM (inactive),–
CCN1/C(=C/c2ccc3cc(C)ccc3[n+]2C)Sc2ccc3sccc3c21,> 30 µM (inactive),–
CCNc1ccc2noc3c2c1C(=O)c1ccccc1-3,4.95 µM,4430
C#CCOCCOCCOCCNc1nc(N2CCN(C(=O)[C@H](CCC(=O)O)n3cc(C(N)CO)nn3)CC2)nc(N2CCN(C(=O)[C@H](Cc3cc4ccccc4[nH]3)n3cc(C(N)[C@H](C)CC)nn3)CC2)n1 (stereo not given in full),> 30 µM (inactive),–
CCN1/C(=C/C(C)=C/c2sc3ccccc3[n+]2CC)Sc2ccccc21,0.53 µM,470
COc1ccc2nc3cc(Cl)ccc3c(Nc3cc(C(C)C)c(O)cc3C)c2c1,1.94 µM,–
CCCOc1ccc2c(c1)C(=NN=C(N)N)c1cc(OCCC)ccc1-2,4.59 µM,–
Nc1ccc(N)c(C(=O)O)c1,3.78 µM,3390
NC(=O)CSc1nnc(Cc2ccc3c(c2)OCO3)o1,> 30 µM (inactive),–
CCn1cc(C(=O)O)c(=O)c2cc(F)c(N3CCN(C(=S)NC(=O)c4ccc(Br)cc4)CC3)cc21,> 30 µM (inactive),–
COc1cc(/C=N/NC(=O)c2cc3ccccc3cc2O)ccc1OCCN1CCCCC1,> 30 µM (inactive),–
CCN(Cc1ccccc1)S(=O)(=O)c1ccc(C(=O)N(CCCN(C)C)c2nc3ccc(F)cc3s2)cc1,5.81 µM,–
CN(C)c1ccc(/C=C/C=C2/SC(=S)N(c3ccccc3)C2=O)cc1,0.95 µM,850
COC(=O)c1c(C)oc(C)c1S(=O)(=O)N(Cc1ccccc1)C(C)C,> 30 µM (inactive),–
COc1ccc(/C=N/Nc2cc(C)nc3ccc(Br)cc23)cc1,1.94 µM,–
Brc1ccc(N=C/C=C/C=C/Nc2ccc(Br)cc2)cc1,> 30 µM (inactive),–
COc1ccc(C(CCNCc2ccc(OC(C)C)cc2)c2ccccc2OC)cc1 (stereo not given),> 30 µM (inactive),–
CCOC(=O)c1c(CSC(=N)N)n(-c2ccc(C)cc2)c2cc(Br)c(OC(C)=O)cc12,5.2 µM,–
COc1ccc(Cn2cc3c(-c4ccc(F)cc4)nnc-3c3cc(OC)c(OC)cc32)cc1,1.15 µM,–
C#CCOCCOCCOCCNc1nc(N2CCN(C(=O)[C@H]([C@@H](C)CC)n3cc([C@@H](N)CC(C)C)nn3)CC2)nc(N2CCN(C(=O)[C@H](Cc3cc4ccccc4[nH]3)n3cc([C@@H](N)Cc4ccc(O)cc4)nn3)CC2)n1,> 30 µM (inactive),–
CCCCCCCCCC[N+](C)(C)CC/C=C1/c2ccccc2Sc2ccc(Cl)cc21,2.24 µM,–
OCCCCNCc1ccc(OCc2ccc(Cl)cc2Cl)cc1,> 30 µM (inactive),–

Compound,EC50,Ki [nM]
CCCCCc1cc(=O)oc2c(C(CCN3CCCC(C)C3)c3ccc4c(c3)OCO4)c(OC)cc(OC)c12 (stereo not given),> 30 µM (inactive),–
Cc1nn2c(N)csc2nc1=O,4.09 µM,3660
CCN1CCN(Cc2ccc(NC(=O)c3cc(NC(=O)c4cnn(-c5ccccc5)c4N)cc(OC)c3)cc2C(F)(F)F)CC1,> 30 µM (inactive),–
CC(=O)c1c(C)[nH]c(C(=O)NC2=NCCS2)c1C,> 30 µM (inactive),–
COc1ccc(Cn2c(SCc3ccc(C)cc3)nc3cc(OC)c(OC)cc3c2=N)cc1Cl,1.97 µM,–
COc1cc2nc(N3CCN(c4cc(C)ccc4C)CC3)nc(N)c2cc1OC,3.89 µM,–
CCN1C(c2ccccc2)=C(c2ccccc2)S/C1=C\C=C1/SC(=S)N(C)C1=O,3.38 µM,3020
CN(C)CCCN(C(=O)c1ccc2c(c1)CCCC2)c1nc2ccc(Cl)cc2s1,> 30 µM (inactive),–
CCN(CC)CCOC(=O)c1ccc(N/C=C(/C#N)c2nc(-c3cc4ccccc4oc3=O)cs2)cc1,4.88 µM,4360
COc1ccc(NC(=O)N(Cc2cc3cc(C)ccc3[nH]c2=O)CC2CCCO2)cc1 (stereo not given),> 30 µM (inactive),–
C#CCOCCOCCOCCNc1nc(N2CCN(C(=O)[C@H](Cc3ccc(O)cc3)n3cc([C@@H](N)CC(C)C)nn3)CC2)nc(N2CCN(C(=O)[C@H](Cc3ccc(O)cc3)n3cc([C@@H](N)CC(C)C)nn3)CC2)n1,8.71 µM,–
CNc1nc(-c2c[nH]c3ccccc23)cs1,> 30 µM (inactive),–
Cc1ccc(-c2csc(NC(=O)C[n+]3cc(-c4ccc(C)cc4)n4c3CCC4)n2)cc1,> 30 µM (inactive),–
CCc1ccc(Nc2n[n+](-c3ccccc3)c(-c3ccc(OC)c(Br)c3)s2)cc1,2.85 µM,–
CCN1/C(=C/c2ccc3cc(C)ccc3[n+]2CC)Sc2cc(C)c(C)cc21,2.63 µM,2350
CCc1ccc(Nc2n[n+](-c3ccccc3)c(-c3ccc(OCc4ccccc4)cc3)s2)cc1,5.48 µM,–
CCN1CCN(Cc2ccc(NC(=O)c3ccc(C)c(NC(=O)C(=O)c4c[nH]c5ccccc45)c3)cc2C(F)(F)F)CC1,> 30 µM (inactive),–
CC[n+]1c(/C=C/C=C/N(C(C)=O)c2ccccc2)sc2ccccc21,> 30 µM (inactive),–
Cc1ccnc(NC(=O)C2(c3cccs3)CCOCC2)c1,> 30 µM (inactive),–
CCOC(=O)C(C(=O)OCC)c1cc(Br)c2noc3c2c1C(=O)c1ccccc1-3,2.82 µM,2530
S=c1[nH]nc(-c2ccc(Cl)cc2)n1-c1ccc2c(c1)OCCO2,> 30 µM (inactive),–
Cc1sc(NC(=O)c2ccccc2)c(C(c2ccccn2)N2CCN(CCO)CC2)c1C (stereo not given),> 30 µM (inactive),–
CCN(CC)CCOC(=O)c1ccc(N/C=C(/C#N)c2nc(-c3ccc(OC)c(OC)c3)cs2)cc1,> 30 µM (inactive),–
Cc1ccc(CN2CCSc3ccc(C(=O)NC4CCN(Cc5ccccc5)CC4)cc32)cc1,5.13 µM,–
CCCSc1ncnc2sc(C)c(C)c12,> 30 µM (inactive),–
